Results reported in patent US11083717B2, “Compositions and methods for drug sensitization of parasites” (The Texas A&M University System, priority 2015, dated 2021).
Read-outs that look alike come from different tables or passages of the source.

Experiments:
human fibroblast = test: in vitro
Source text: (§1) These tests included an IL-12 mouse model test to determine compound efficacy, verification of MIC50 for CP, cytotoxicity test for fibroblasts and yeast to determine potential toxic effects, a Human ether-a-go-go-related gene (hERG) test to determine potential cardiotoxicity, an AMES test tp determine mutagenic potential, a Safety Screen 44 test to determine common negative off-target drug interastion (Eurofins Cerep, SA, France), a cytochrome P450 (CYP) test to determine potential liver toxicity, a maximum tolerated dose, test, a Pharmacokinetics (PK) test to determine fate of the substance administered to a living organism tests for plasma stability in human and mouse, to measure the degradation of compound in plasma MClint and HClint test to determine in vitro intrinsic clearance for Mouse and Human, and kinetic solubility and plasma protein binding tests in mouse and human.

S. cerevisiae = test: in vitro; details: Saccharomyces cerevisiae
Source text: as §1

Row | Structure (SMILES) | concentrations at which not toxic, S. cerevisiae cytotoxicity testing (S. cerevisiae) [µM] | also measured
1 | CN(C)C(=O)Nc1ccc(Oc2cnc3cc(Cl)ccc3n2)cc1 [NZ-343, 1-{4-[(6-chloroquinoxalin-2-yl)oxy]phenyl}-3,3-dimethylurea] | – | concentrations at which not toxic, human fibroblast cytotoxicity testing (human fibroblast; human): ≥ 100 µM
2 | CONC(=O)C(O)c1ccc(Oc2nc3ccc(Cl)cc3s2)cc1 (centres unmarked) [NZ-338, 2-{4-[(6-chloro-1,3-benzothiazol-2-yl)oxy]phenyl}-2-hydroxy-N-methoxyacetamide] | – | concentrations at which not toxic, human fibroblast cytotoxicity testing (human fibroblast; human): ≥ 100 µM
3 | CC(C)NC(=O)Nc1ccc(Oc2nc3ccccc3s2)cc1 [NZ-360, 1-{4-(1,3-benzothiazol-2-yloxy)phenyl]-3-(propan-2-yl)urea] | ≥ 100 | –
4 | CNC(=O)Nc1ccc(Oc2nc3ccc(Cl)cc3s2)cc1 [NZ-353, 1-{4-[(6-chloro-1,3-benzothiazol-2-yl)oxy]phenyl}-3-methylurea] | ≥ 100 | –
5 | CC(C)NC(=O)Nc1ccc(Oc2cnc3cc(F)ccc3n2)cc1 [NZ-345, 1-{4-[(6-fluoroquinoxalin-2-yl)oxy]phenyl}-3-(propan-2-yl)urea] | – | concentrations at which not toxic, human fibroblast cytotoxicity testing (human fibroblast): ≥ 100 µM
6 | CNC(=O)NCc1ccc(Oc2nc3ccc(Cl)cc3s2)cc1 [NZ-350, 1-({4-[(6-chloro-1,3-benzothiazol-2-yl)oxy]phenyl}methyl)-3-methylurea] | ≥ 100 | –
7 | COC(=O)COc1ccc(Oc2nc3ccc(F)cc3s2)cc1 [NZ-303, methyl 2-{4-[(6-fluoro-1,3-benzothiazol-2-yl)oxy]phenoxy}acetate] | – | concentrations at which not toxic, human fibroblast cytotoxicity testing (human fibroblast; human): ≥ 100 µM
8 | COC(=O)C(OC)c1ccc(Oc2nc3ccc(Cl)cc3s2)cc1 (centres unmarked) [NZ-355, methyl 2-{4-[(6-chloro-1,3-benzothiazol-2-yl)oxy]phenyl}-2-methoxyacetate] | ≥ 100 | –
9 | COC(C(=O)O)c1ccc(Oc2nc3ccc(Cl)cc3s2)cc1 (centres unmarked) [NZ-356] | ≥ 100 | –
10 | Nc1ccc(Oc2nc3ccc(Cl)cc3s2)cc1 [NZ-352, 4-[(6-chloro-1,3-benzothiazol-2-yl)oxy]aniline] | 25 to 50 | –
11 | CC(C)NC(=O)Nc1ccc(Oc2nc3ccc(Br)cc3s2)cc1 [NZ-359, 1-{4-[(6-bromo-1,3-benzothiazol-2-yl)oxy]phenyl}-3-(propan-2-yl)urea] | ≥ 100 | –
12 | CONC(=O)C(OC)c1ccc(Oc2nc3ccc(Cl)cc3s2)cc1 (centres unmarked) [NZ-357, 2-{4-[(6-chloro-1,3-benzothiazol-2-yl)oxy]phenyl}-N,2-dimethoxyacetamide] | ≥ 100 | –
13 | CN(C)C(=O)NCc1ccc(Oc2nc3ccc(Cl)cc3s2)cc1 [NZ-349, 1-({4-[(6-chloro-1,3-benzothiazol-2-yl)oxy]phenyl}methyl)-3,3-dimethylurea] | ≥ 100 | –
14 | CN(C)C(=O)Nc1ccc(Oc2nc3ccc(Cl)cc3s2)cc1 [NZ-354, 1-{4-[(6-chloro-1,3-benzothiazol-2-yl)oxy]phenyl}-3,3-dimethylurea] | 50 to 100 | –
15 | NCc1ccc(Oc2nc3ccc(Cl)cc3s2)cc1 [NZ-348, {4-[(6-chloro-1,3-benzothiazol-2-yl)oxy]phenyl}methanamine] | 25 to 50 | –
16 | CC(C)(C)OC(=O)Nc1ccc(Oc2nc3ccc(Cl)cc3s2)cc1 [NZ-351, tert-butyl N-{4-[(6-chloro-1,3-benzothiazol-2-yl)oxy]phenyl}carbamate] | ≥ 100 | –
17 | Cc1ccc2nc(Oc3ccc(NC(=O)NC(C)C)cc3)sc2c1 [NZ-358, 1-{4-[(6-methyl-1,3-benzothiazol-2-yl)oxy]phenyl}-3-(propan-2-yl)urea] | ≥ 100 | –
